# Laboratory results taken from PMC8012331, “Drug-induced hepatic steatosis in absence of severe mitochondrial dysfunction in HepaRG cells: proof of multiple mechanism-based toxicity” (Cell Biology and Toxicology, 2020).
# “And” between values parts separate entries of the source, which are not always exact repeats. Identical values can stand only once. Like-named read-outs stand apart in the source and are kept apart here.
# Tests used:
# [1] = tested on: primary human hepatocytes (PHH); test: Neutral lipids with Nile red in primary human hepatocytes; assay type: cell-based; conditions: 4 days
# Procedure: Primary human hepatocytes (PHH) were purchased from Biopredic International (Saint-Grégoire, France). Cells were seeded by the supplier in coated 96-well plates at a density of 5 × 10^4 cells/well. Upon receipt, culture medium was removed and replaced by William’s E medium supplemented as previously described for HepaRG cell differentiation, except for DMSO set at 1%. After 2–3 days, cells were treated as for HepaRG cells. For HepaRG cells and PHH, cells were always maintained in incubators at 37 °C with 5% CO2 and saturating humidity.
# Cells were then incubated with PBS containing 0.1 μg/mL Nile red for 30 min and washed once. […] For each well, four pictures were taken at a magnification of × 20 and analyzed with Columbus software (PerkinElmer) for quantification. These pictures were always taken in four different areas around the center of each well, and these areas were the same from one well to another, as programmed by the Columbus software. This software was also designed to count only living cells after exclusion of dying cells harboring nuclei with abnormal shape or altered Hoechst intensity. […] Neutral lipids were then normalized per number of nuclei and expressed relative to control cells. Examples of images used for neutral lipid quantification are shown in Supplementary Fig. 2.
# [2] = tested on: de novo lipogenesis (DNL); test: DNL from [2-14C]acetic acid in HepaRG cells; assay type: cell-based, human; conditions: 4 days, vs control
# [3] = tested on: permeabilized HepaRG cells; test: Oxygen consumption in permeabilized HepaRG cells (Seahorse); assay type: cell-based, human; conditions: for EC20 values for inhibition of O2 consumption, Glutamate + malate / EC20 values for inhibition of O2 consumption, Octanoyl-L-carnitine / EC20 values for inhibition of O2 consumption, Palmitoyl-CoA + L-carnitine / EC20 values for inhibition of O2 consumption, Palmitoyl-L-carnitine: state 3, mean ± SD, 2-3 runs
# Procedure: Cryopreserved differentiated HepaRG cells (HPR116, Biopredic International) were thawed and seeded at 36,000 cells/well in Seahorse XFe96 cell culture microplate (Agilent) in HepaRG® Thawing/Plating/General Purpose Medium Supplement with antibiotics (Biopredic International) combined with 100 mL of William’s Medium E (Sigma) and incubated at 37 °C with 5% CO2. The day after, medium was replaced by HepaRG Maintenance/Metabolism Medium Supplement with antibiotics (Biopredic International) combined with 100 mL of William’s Medium E. […] Two technical replicates were carried out per condition in two to three independent experimental runs.
# IRE1α = test: Western blot total IRE1α in HepaRG cells; assay type: cell-based, human
# Procedure: Cells were lysed in ice-cold CelLytic M buffer (C2978; Sigma Aldrich) containing phosphatase and protease inhibitors from Roche Applied Science (Penzberg, Germany). Protein concentration was determined using the Pierce BCA Protein Assay Kit (Thermo Fisher Scientific) and equal amounts of protein were diluted with NuPAGE LDS Sample Buffer (Thermo Fisher Scientific). Samples (ca. 25 μg of proteins) were then separated by SDS-PAGE using NuPAGE 4–12% Bis-Tris gels (Thermo Fisher Scientific). Proteins were transferred to PVDF membranes (BioRad) and Ponceau S staining was used to confirm equal loading and transfer. Membranes were blocked in 7.5% milk in TBST (10 mM Tris–HCl, 100 mM NaCl, 0.02% Tween 20) for 1 h at room temperature and incubated overnight at 4 °C with antibodies against phospho-IRE1α (Ser724) (Abcam, ab124945), IRE1α (Cell Signaling, 3294), or HSC70 (Santa Cruz, sc-7298), whose dilutions were 1:1000. […] Protein content was quantified by densitometry with ImageJ software (National Institutes of Health, Bethesda, MD).
# [4] = tested on: acetyl-CoA carboxylase alpha (ACACA); test: RT-qPCR ACACA mRNA in HepaRG cells; assay type: cell-based, human; conditions: 4 days, vs control
# Procedure: (§1) Total RNA was extracted with the Nucleospin RNA isolation system purchased from Macherey-Nagel (Düren, Germany), which included a DNase treatment step. Quantification of isolated RNAs was assessed using a Nanodrop 1000 (Thermo Fisher Scientific, Waltham, MA). RNAs were reverse-transcribed into cDNAs using the High-Capacity cDNA Reverse Transcription Kit purchased from Applied Biosystems (Woolston, UK). Gene expression was assessed by real-time quantitative PCR analysis (RT-qPCR) using SYBR Green PCR Master Mix (Applied Biosystems) and a 384-well QuantStudio™ 7 Flex Real-Time PCR System (Thermo Fisher Scientific). Sequences of the primers used to measure gene expression are presented in Supplementary Table 3. Expression of GAPDH was chosen as reference and the 2^−ΔΔCt calculation method was used to express the relative expression of each selected gene.
# [5] = tested on: stearoyl-CoA desaturase 1 (hSCD1); test: RT-qPCR hSCD1 mRNA in HepaRG cells; assay type: cell-based, human; conditions: 4 days, vs control
# Procedure: as §1
# [6] = treated patients, ref Schulz M et al., Crit Care 2012 ;16(4):R136, cited from earlier work
# HepaRG cells = test: Neutral lipids with Nile red in HepaRG cells; conditions: 4 days, selected concentrations (ATP loss < 30%, not above 100 × Cmax), vs control
Structure (SMILES),Steatosis in PHH batches (six batches tested) [1],Effect on DNL [2],"EC20 values for inhibition of O2 consumption, Glutamate + malate [3] [µM]","EC20 values for inhibition of O2 consumption, Octanoyl-L-carnitine [3] [µM]","EC20 values for inhibition of O2 consumption, Palmitoyl-CoA + L-carnitine [3] [µM]","EC20 values for inhibition of O2 consumption, Palmitoyl-L-carnitine [3] [µM]",Protein level of total IRE1α (IRE1α),ACACA mRNA level [4],hSCD1 mRNA level [5],Therapeutic blood (or plasma) concentration in patients ([6]; listed as Indomethacin (INDO)),Accumulation of neutral lipids (steatosis) (HepaRG cells),"EC20 for inhibition of O2 consumption, all substrates ([3]; all four substrates)",Therapeutic blood (or plasma) concentration in patients ([6]; listed as Rifampicin (RIF))
"COc1ccc2c(c1)c(CC(=O)O)c(C)n2C(=O)c1ccc(Cl)cc1 [INDO, indomethacin]",steatotic in two PHH batches,increased DNL,119 ± 20,150 ± 11,79 ± 8,163 ± 26,increased protein level,augmented mRNA abundance,also increased hSCD1 mRNA level,0.3 - 1 mg/L and 0.83 - 2.8 µM,–,–,–
"CO[C@H]1/C=C/O[C@@]2(C)Oc3c(C)c(O)c4c(O)c(c(/C=N/N5CCN(C)CC5)c(O)c4c3C2=O)NC(=O)/C(C)=C\C=C\[C@H](C)[C@H](O)[C@@H](C)[C@@H](O)[C@@H](C)[C@H](OC(C)=O)[C@@H]1C [RIF, rifampicin]",induced steatosis in only one PHH batch,curb this metabolic pathway,> 200,> 200,> 200,> 200,increased protein level,–,–,–,significant accumulation of neutral lipids,above 200 μM,0.1 - 10 mg/L and 0.12 - 12.2 µM
